“Also recorded” adds a separate entry of the source.
What was measured:
STING signaling [1] = assay: Western blot of STING, pTBK1 and pIRF3 in hTERT cells after ISD transfection; type: cell-based, human; conditions: 6 hours after ISD transfection
Procedure: (§1) Example 8: Immunoblot analysis: Equal amounts of proteins were resolved on sodium dodecyl sulfate (SDS)-Polyacrylamide gels and then transferred to polyvinylidene fluoride (PVDF) membranes (Millipore). After blocking with 5% Blocking Reagent, membranes were incubated with various primary antibodies (and appropriate secondary antibodies). The image was resolved using an enhanced chemiluminescence system ECL (Thermo Scientific) and detected by autoradiography (Kodak). Antibodies: rabbit polyclonal antibody against STING was developed in our laboratory as described previously in Ishikawa et al, 2008; other antibodies were obtained from following sources: β-actin (Sigma Aldrich), p-IRF3 (Cell Signaling), IRF3 (Santa Cruz Biotechnology), p-p65 (Cell Signaling), p65 (Cell Signaling), p-TBK1 (Cell Signaling), TBK1 (Abcam), cGAS (Cell Signaling).

STING signaling [2] = assay: qPCR of Cxcl10 / Cxcl5 in MEF cells after ISD transfection; type: cell-based, murine
Procedure: (§2) MEFs were obtained from E13.5 embryos by a standard procedure. Bone Marrow Derived Macro-phages (BMDM) were isolated from hind-limb femurs of 8-10 weeks old WT and Trex1 KO (TKO) mice. The hematopoietic cells from the bone marrow were cultured in complete DMEM (Invitrogen) including 10 ng/ml of Mouse Recombinant Colony-Stimulating Factor (M-CSF, R&D Systems) for 10 to 14 days.
(§3) Example 11: qPCR total RNA were reverse-transcribed using M-MLV Reverse Transcriptase (Promega). Real-time PCR was performed using Taqman Gene Expression Assay (Applied Biosystems) for innate immune genes and inflammatory cytokines.

STING signaling [3] = assay: IFNβ ELISA in normal hTERT cells after ISD transfection; type: cell-based, human
Procedure: Example 9: Interferon β Elisa analysis: Interferon β Elisa was performed using either the IFNβ human ELISA Kit from Invitrogen or the Human IFNβ ELISA Kit from PBL Interferon Source following the manufacturer's protocol.

STING signaling [4] = assay: Luciferase live cell assay, type I IFN promoter in hTERT-pIFNβ-Glu cells after ISD transfection; type: cell-based, human; conditions: hTERT-pIFNβ-Glu cells
Procedure: Inhibition of IFNβ expression was measured by Luciferase induction at 24 hours after transfection of ISD, Mock is shown (210), ISD treatment only (220) was used as a control, according to an embodiment of the invention;
Example 1: Identification of small molecule antagonists of STING. In the presence of cytosolic DNA species, STING becomes activated to drive the transcription of cytokines such as type I IFN. Compounds binding to STING via TSA were subsequently examined for their ability to prevent cytosolic DNA species from activating the type I interferon (IFN) promoter, using a live cell assay. This assay comprised immortalized human fibroblasts that were stably transfected with the type I IFN promoter driving luciferase as well as the CMV promoter driving SEAP (hTERT-pIFNβ-Glu). The live cell assay has previously been disclosed in PCT/JS2019/025380 entitled IFN-βETA REPORTER SYSTEM FOR IMMORTALIZED PRIMARY CELLS inventor Glen N. Barber, which was filed Apr. 2, 2018 and published as WO2019195285, and which is herein incorporated by reference in its entirety and for all purposes. The ability of the small molecules to prevent activation of the type I IFN promoter and the transcription of luciferase, but not SEAP in response to cytosolic DNA species was assessed. The activation of STING, typically by CDNs, in turn activates the transcription factors NF-κB and IRF3, both of which are required to induce the transcriptional stimulation of the Type I IFN promoter, but not the CMV promoter as IRF3 and NF-kB transcription factor binding sites are not contained in the CMV promoter. The assay identified the small molecule Compound Y1 in the first screen (HTS), where the level of luciferase was not able to activate the type I IFN promoter or induce the expression of luciferase (see Table I).
Example 4: hTERT-BJ1 Telomerase Fibroblasts (hTERT) were originally purchased from Clontech and were cultured in 4:1 ratio of DMEM:Medium 199 supplement with 10% FBS, 4 mM L-Glutamine and 1 mM sodium pyruvate at 37° C. in a 5% CO2-humidified atmosphere. hTERT-BJ1 Telomerase Fibroblasts stably expressing the luciferase gene under the control of the interferon-beta promoter and SEAP gene under control of the CMV promoter) (hTERT-pIFNβ-Glu) were generated by the Barber laboratory.
Example 7: Luciferase assay: hTERT-BJ1 Telomerase Fibroblasts stably expressing the luciferase gene under the control of the interferon-beta promoter and SEAP gene under control of the CMV promoter) (hTERT-pIFNβ-Glu) were generated by the Barber laboratory. Luciferase assay was performed using Secrete-Pair Dual Luminescence Assay Kit from GeneCopoeia following the manufacturer's protocol.

STING signaling [5] = assay: qPCR of IFNβ1 / Cxcl10 in normal hTERT cells after ISD transfection; type: cell-based, human
Procedure: as §3

STING signaling [6] = assay: Western blot of STING, TBK1 and IRF3 phosphorylation in MEF cells; type: cell-based, murine; conditions: cytosolic DNA
Procedure: as §1

[7] = test system: TREX1-deficient macrophages; assay: qPCR of Cxcl10 in TREX1 knockout (TKO) bone marrow derived macrophages; type: cell-based, mouse; conditions: TKO BMDM, compared to DMSO control
Procedure: as §2, §3

TREX1-deficient mice = assay: Treatment of TREX1 knockout (TKO) mice: survival and heart histopathology; type: in vivo, mouse
Procedure: Example 12: Mouse Treatment: Trex1 Hetero knockout mice (Trex1^+/−) were generated by crossing the hetero mice. Mouse genotypes from tail biopsies were determined using Real Time PCR with specific probes designed for each gene by commercial vendor (Transnetyx). Trex1 KO (TKO) mice (4-5 weeks old) were intraperitoneally injected with 25 μg Z811 per mouse in 200 μL 1% DMSO in PBS. The mice were injected three times a week for 5 months. The survival rates were evaluated.
Example 13: Histopathology. Mice are sacrificed and the heart tissues were fixed in 10% formalin for 48 hours.

STING signaling [8] = assay: Confocal analysis of STING trafficking and IRF3 translocation in hTERT cells; type: cell-based, human; conditions: 6 hours after ISD transfection
Procedure: FIG. 2E are photographs showing confocal analysis of STING trafficking using anti-Sting performed at 6 hours after ISD transfection with Y1+220/without 220, Mock is shown (210), ISD treatment only (220) was used as control, treatment same as in FIG. 2A, according to an embodiment of the invention;
Example 10: Immunofluorescence Microscopy: Cells were cultured and treated in their appropriate media on Lab-Tek II chamber slides. Cell were fixed with 4% paraformaldehyde for 15 minutes in at 37° C. and permeabilized with 0.05% Triton X-100 for 5 minutes at room temperature. Immunostaining was performed with rabbit-anti-STING polyclonal, rabbit-anti-IRF3 (Santa Cruz Biotechnology) or rabbit-anti-p65 (Cell Signaling) followed by fluorescence conjugated secondary antibodies (FITC-goat-anti-rabbit) (Invitrogen).

## N#Cc1c(NC(=O)c2ccccc2Cl)n(Cc2ccccc2)c2nc3ccccc3nc12 [Compound Y1, N-{1-benzyl-3-cyano-1H-pyrrolo[2,3-ß]quinoxalin-2-yl}-2-chlorobenzamide]
STING signaling [1]
  STING, TBK1 and IRF3 phosphorylation (Western blot): robustly prevented STING phosphorylation and subsequently TBK1 and IRF3 phosphorylation; also recorded: able to prevent the phosphorylation of STING, TBK1 and IRF3
STING signaling [2]
  Cxcl10 production in response to ISD (qPCR): dramatically decreased
STING signaling [2]; 50 μM
  Cxcl5 production in response to ISD (qPCR): dramatically decreased
STING signaling [3]
  IFNβ production (ELISA): dramatically decreased IFNβ expression and production
STING signaling [4]; 10 μM and 50 μM, ISD 3 μg/ml, 24 hours after transfection
  inhibition of activation of the type I IFN promoter (luciferase induction): inhibited activation of the type I IFN promoter; also recorded: exhibited inhibition of the activation of the type I IFN promoter
STING signaling [4]; 50 μM or 25 μM, in response to ISD
  inhibitory activity of the type I IFN promoter (luciferase induction): showed robust inhibitory activity of the type I IFN promoter
STING signaling [5]; normal hTERT cells stimulated with ISD, 50 μM, 25 μM or 5 μM
  production of STING-inducible cytokine Cxcl10 (qPCR): robustly inhibited
STING signaling [5]; normal hTERT cells, 6 hours after ISD transfection
  IFNβ expression (qPCR of IFNβ1): dramatically decreased IFNβ expression and production
STING signaling [6]
  phosphorylation of TBK1, IRF3 and STING (Western blot): prevented the phosphorylation of either TBK1 or IRF3
[7]
  Cxcl10 expression / cytokine production in TREX1-deficient macrophages (qPCR): can repress cytokine production in TREX1-defective cells; also recorded: dramatically decreased; also recorded: inhibits TREX1 dependent Cxcl10 expression
TREX1-deficient mice
  inflammation in the heart (H&E staining): Less inflammation in the heart
TREX1-deficient mice; intraperitoneal, 25 μg/mouse, 5 months, compared to mock treated
  survival of TREX1-deficient mice: survival was significantly improved over several months; also recorded: extended the life of TREX1-deficient mice
STING signaling [8]
  IRF3 translocation (confocal analysis): able to prevent
  STING trafficking (confocal analysis): effectively preventing STING trafficking; also recorded: able to prevent

— patent US12410174B1, “Small molecular inhibitors of sting signaling compositions and methods of use” (TYERELL IMMUNOTHERAPEUTICS INC, priority 2020, dated 2025)
